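Values below derive from 48-hour exposures of cells grown in 96-well plates, with endpoints linearly interpolated between the two concentrations bracketing the appropriate inhibition level. Here, GI50 denotes the concentration required for 50% inhibition of growth. At the TGI there is no net growth.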
Tests used:
Test in all cases: inhibition of tumour cell growth, NCI panel, 48 h
[1] = tested on: MCF7 breast
[2] = tested on: PC-3 prostate
[3] = tested on: SK-MEL-5 melanoma
[4] = tested on: RPMI-8226 leukemia
[5] = tested on: MDA-MB-231 breast
[6] = tested on: KM12 colon
[7] = tested on: NCI-H460 lung
[8] = tested on: NCI-H226 lung
[9] = tested on: HL-60(TB) leukemia
[10] = tested on: RXF 393 renal

| SMILES | GI50 [1] | TGI [1] | GI50 [2] | TGI [2] | GI50 [3] | TGI [3] | GI50 [4] | TGI [4] | GI50 [5] | TGI [5] | GI50 [6] | TGI [6] | GI50 [7] | TGI [7] | GI50 [8] | TGI [8] | GI50 [9] | TGI [9] | GI50 [10] | TGI [10] |
| --- | --- | --- | --- | --- | --- | --- | --- | --- | --- | --- | --- | --- | --- | --- | --- | --- | --- | --- | --- | --- |
| Cc1ccc(Cl)cc1Nc1nc(C(F)(F)F)ccc1C(=O)N1CCN(c2cccc(Cl)c2)CC1 | 47.9 µM | > 100 µM | 21.7 µM | > 100 µM | > 100 µM | > 100 µM | 33.2 µM | > 100 µM | 30.5 µM | > 100 µM | > 100 µM | > 100 µM | 90.1 µM | > 100 µM | > 100 µM | > 100 µM | 94.4 µM | > 100 µM | – | – |
| CCCCCCC[CH2][Sn]1([CH2]CCCCCCC)[O]C(=O)c2cccnc2[S]1 | – | – | – | – | > 100 µM | > 100 µM | > 100 µM | > 100 µM | – | – | > 100 µM | > 100 µM | > 100 µM | > 100 µM | > 100 µM | > 100 µM | > 100 µM | > 100 µM | > 100 µM | > 100 µM |
| O=C(NCCCCN=c1cccccc1NCCCCNC(=O)OCc1ccccc1)OCc1ccccc1 | – | – | – | – | – | 33.1 µM | – | 32.8 µM | – | – | – | 32.4 µM | – | 26.4 µM | – | 32.1 µM | – | 31.3 µM | – | 40.4 µM |
| COc1ccc(C(O)c2nccn2C)c(OC)c1 (stereo not drawn) | – | > 100 µM | – | > 100 µM | – | > 100 µM | – | > 100 µM | – | – | – | > 100 µM | – | > 100 µM | – | > 100 µM | – | > 100 µM | – | > 100 µM |
| COc1ccc2[nH]cc(-c3nc(-c4c[nH]c5ncccc45)cs3)c2c1 | 3.33 µM | > 100 µM | 4.33 µM | > 100 µM | 2.87 µM | > 100 µM | 4.76 µM | > 100 µM | 2.21 µM | > 100 µM | 3.56 µM | > 100 µM | 3.26 µM | > 100 µM | 3.93 µM | > 100 µM | 1.81 µM | > 100 µM | – | – |
| COc1ccc2oc(-c3cccnc3)cc(=O)c2c1 | – | – | – | – | – | – | – | > 100 µM | – | – | – | > 100 µM | – | > 100 µM | – | > 100 µM | – | > 100 µM | – | > 100 µM |
| CCOc1ccc(N2C(=O)/C(=C/c3ccc(N(CCC#N)CCC#N)cc3)N=C2c2cc([N+](=O)[O-])ccc2Cl)cc1 | – | – | – | – | – | 34.6 µM | – | > 100 µM | – | – | – | 55.3 µM | – | 55.7 µM | – | > 100 µM | – | > 100 µM | – | > 100 µM |
| CCOC(=O)C1(c2ccccc2)CCC(=O)CC1 | – | – | – | – | – | > 100 µM | – | – | – | – | – | > 100 µM | – | > 100 µM | – | > 100 µM | – | > 100 µM | – | > 100 µM |
| Cc1ccc(S(=O)(=O)N/N=C/c2oc(-c3ccncc3)c(-c3ccncc3)c2[N+](=O)[O-])cc1 | – | – | – | – | – | > 100 µM | – | – | – | – | – | > 100 µM | – | > 100 µM | – | > 100 µM | – | > 100 µM | – | > 100 µM |
| O=C1NC(=S)NNC12c1ccccc1-c1ccccc12 | – | > 10 µM | – | – | – | > 10 µM | – | > 10 µM | – | > 10 µM | – | > 10 µM | – | > 10 µM | – | > 10 µM | – | > 10 µM | – | – |
| C[C@H]1NC(=O)C2CCCCN2C(=O)CN(C)C(=O)CNC(=O)C2CCCCN2C(=O)[C@@H](NC(=O)c2nc3ccccc3cc2O)[C@@H](C)NC(=O)C2CCCCN2C(=O)CN(C)C(=O)CNC(=O)[C@@H]2CCCCN2C(=O)C1NC(=O)c1nc2ccccc2cc1O (stereo partly drawn) | – | – | – | – | – | – | – | 0.764 µM | – | – | – | 18.7 µM | – | > 100 µM | – | 0.383 µM | – | 4.72 µM | – | 0.199 µM |
| O=C(O)[C@H](NS(=O)(=O)c1ccc2ccccc2c1)c1ccccc1 | – | – | – | – | – | – | – | > 100 µM | – | – | – | – | – | > 100 µM | – | – | – | > 100 µM | – | > 100 µM |
| O=c1cc2oc3cc(O)c(O)cc3c(-c3ccccc3O)c-2cc1O | 18.4 µM | > 100 µM | 36.1 µM | > 100 µM | 19.4 µM | > 100 µM | – | – | 10.2 µM | > 100 µM | 30.7 µM | > 100 µM | 21.5 µM | 82.6 µM | 14.4 µM | > 100 µM | 33.5 µM | 99.6 µM | 6.5 µM | > 100 µM |
| NS(=O)(=O)c1ccc(N(/C=C/C(=O)C(F)(F)F)CC(=O)c2ccc(Cl)cc2)cc1 | 15.8 µM | 49.7 µM | 26.4 µM | 84.1 µM | 38.9 µM | > 100 µM | 20.2 µM | 53.6 µM | 36.3 µM | > 100 µM | 24.2 µM | 73.7 µM | 31.8 µM | 89 µM | 28.9 µM | 94.1 µM | – | – | > 100 µM | > 100 µM |
| Cc1cn2c(/C=C3\C(=O)Nc4ccc(O)cc43)c(-c3ccc(Cl)cc3)nc2s1 | 14.2 µM | 33.8 µM | 22.2 µM | > 100 µM | 10.1 µM | 25.2 µM | 34.5 µM | > 100 µM | 14.5 µM | 54.2 µM | 45.4 µM | > 100 µM | 15.5 µM | 45.3 µM | 18.5 µM | 51 µM | 14.4 µM | 40.7 µM | – | – |
| CCOc1ccc2c(c1)[n+]([O-])c(-c1ccccc1Cl)c(N)[n+]2[O-] | – | – | – | – | – | > 100 µM | – | – | – | – | – | > 100 µM | – | > 100 µM | – | > 100 µM | – | > 100 µM | – | > 100 µM |
| COc1ccncc1C#Cc1cncc(C(=O)Nc2ccc(CN3CCN(C)CC3)c(C(F)(F)F)c2)c1 | 11.1 µM | 94.6 µM | 27.3 µM | > 100 µM | 39 µM | > 100 µM | – | – | 7.71 µM | 85.4 µM | 0.326 µM | 64.5 µM | 16.1 µM | 71 µM | 4.6 µM | > 100 µM | 7.4 µM | 46.7 µM | 15.7 µM | 49.5 µM |
| Cc1ccc(NC(=O)C2C(=O)N(c3ccc(C)c(C)c3)C(=O)C2N=N)cc1C (stereo not drawn) | – | – | – | – | – | > 100 µM | – | – | – | – | – | > 100 µM | – | > 100 µM | – | > 100 µM | – | > 100 µM | – | > 100 µM |

Source: PubChem BioAssay (NCI)
